Series [1] is described as follows: Unbound brain-to-plasma concentration ratio in P-gp knock out Sprague-Dawley rat.
A short description of series [2]: Unbound brain concentration in P-gp knock out Sprague-Dawley rat at 5 mg/ml/kg, po measured upto 4 hrs by LC-MS analysis. To be noted: in vivo.
Series [3] in a line: Unbound plasma concentration in P-gp knock out Sprague-Dawley rat at 5 mg/ml/kg, po measured upto 4 hrs by LC-MS analysis.
Series [4] is described as follows: Ratio of drug concentration in brain to plasma of P-gp knock out Sprague-Dawley rat.

For the compound `Cc1nc2n(c(=O)c1CCN1CCC(c3noc4cc(F)ccc34)CC1)CCCC2` [RISPERIDONE], the Kp uu in series [1] (brain/plasma) was 1.38. Besides, the Fu in series [2] was determined as 0.12; in series [3] (in vivo, 4 h), 0.033. Moreover, the Kp in series [4] (brain) worked out at 1.56.

As for `Clc1ccc2c(c1)CCc1cccnc1C2=C1CCNCC1` [DESLORATADINE], in series [1] (brain/plasma), the Kp uu worked out at 0.061. In series [3] (plasma), this compound returned a fraction unbound at 4 h of 0.19.

In the case of `C=C[C@H]1C[N@@]2CC[C@H]1C[C@@H]2[C@@H](O)c1ccnc2ccc(OC)cc12` [QUINIDINE], the Kp uu in series [1] (brain) was 0.065.

`CCN(CC)CCNC(=O)c1cc(Cl)c(N)cc1OC` [METOCLOPRAMIDE]: in series [1] (brain), the Kp uu was 2.45. In series [2], this compound returned a Fu of 0.817. Moreover, the free fraction (fraction unbound) at 4 h in series [3] (in vivo) was 0.677. In series [4] (brain), the Kp amounted to 5.05.

As to `CN1CC[C@H](c2c(O)cc(O)c3c(=O)cc(-c4ccccc4Cl)oc23)[C@H](O)C1` [ALVOCIDIB], the Kp uu in series [1] (brain/plasma) was 0.234. The fraction unbound at 4 h in series [3] (plasma) was 0.051. The Kp in series [4] (brain/plasma) was 0.451.

Take `O=C(O)CCCN1CCC(OC(c2ccc(Cl)cc2)c2ccccn2)CC1` (configuration not stated): the Kp uu in series [1] (brain/plasma) amounted to 0.018. In series [3] (plasma), this compound returned a fraction unbound at 4 h of 0.642. Besides, in series [4] (brain/plasma), the partition ratio (Kp) came to 0.031.

Regarding `COc1ccc(CCN2CCC(Nc3nc4ccccc4n3Cc3ccc(F)cc3)CC2)cc1` [ASTEMIZOLE], in series [1] (brain), the Kp uu was 0.577. The compound further came in with a Fu in series [2] of 0.004. The compound also registered an unbound share (fraction unbound) at 4 h in series [3] (in vivo) of 0.011. For the same compound, the partition ratio (Kp) in series [4] (brain) was determined as 38.9.

For the compound `COc1cc2nc(N3CCN(C(=O)c4ccco4)CC3)nc(N)c2cc1OC` [PRAZOSIN], in series [1] (brain/plasma), the Kp uu is 0.164. The same compound came in with a fraction unbound at 4 h in series [3] (plasma) of 0.264. Further, the concentration ratio (Kp) in series [4] (brain/plasma) amounted to 0.247.

As to `Cc1ccc(NC(=O)c2ccc(CN3CCN(C)CC3)cc2)cc1Nc1nccc(-c2cccnc2)n1` [IMATINIB], the Kp uu in series [1] (brain/plasma) worked out at 0.041.

In the case of `CC(C)N(CCC(C(N)=O)(c1ccccc1)c1ccccn1)C(C)C` (configuration not stated) [DISOPYRAMIDE], in series [1] (brain), the Kp uu came out at 0.036. The Fu in series [2] is 0.491. In series [3] (in vivo), the fraction unbound at 4 h came out at 0.669. Moreover, the Kp in series [4] (brain) was 1.02.

As to `CC(C)(C)NC(=O)[C@@H]1C[C@@H]2CCCC[C@@H]2CN1C[C@@H](O)[C@H](Cc1ccccc1)NC(=O)[C@H](CC(N)=O)NC(=O)c1ccc2ccccc2n1`, the Kp uu in series [1] (brain) was determined as 0.014. Moreover, in series [2], the Fu was 0.006. In addition, the free fraction (fraction unbound) at 4 h in series [3] (plasma) came to 0.005. For the same compound, the partition ratio (Kp) in series [4] (brain) worked out at 0.067.

The compound `C[C@H]1O[C@@H](O[C@H]2[C@@H](O)C[C@H](O[C@H]3[C@@H](O)C[C@H](O[C@H]4CC[C@@]5(C)[C@H](CC[C@@H]6[C@@H]5C[C@@H](O)[C@]5(C)[C@@H](C7=CC(=O)OC7)CC[C@]65O)C4)O[C@@H]3C)O[C@@H]2C)C[C@H](O)[C@@H]1O` [DIGOXIN] showed a fraction unbound at 4 h in series [3] (in vivo) of 0.583.

As to `Cc1c(O)cccc1C(=O)N[C@@H](CSc1ccccc1)[C@H](O)CN1C[C@H]2CCCC[C@H]2C[C@H]1C(=O)NC(C)(C)C`, the Kp uu in series [1] (brain/plasma) amounted to 0.007. Moreover, the free fraction (fraction unbound) at 4 h in series [3] (plasma) was 0.003.

With `COc1cc([C@@H]2c3cc4c(cc3[C@@H](O[C@@H]3O[C@@H]5CO[C@@H](C)O[C@H]5[C@H](O)[C@H]3O)[C@H]3COC(=O)[C@H]23)OCO4)cc(OC)c1O` [ETOPOSIDE], the Kp uu in series [1] (brain) amounted to 0.024. Moreover, the Fu in series [2] amounted to 0.539. This compound came in with a fraction unbound at 4 h in series [3] (in vivo) of 0.357. Further, the partition ratio (Kp) in series [4] (brain) turned out to be 0.037.

For the compound `C[C@@H](Oc1cc(-c2cnn(C3CCNCC3)c2)cnc1N)c1c(Cl)ccc(F)c1Cl` [CRIZOTINIB], the Kp uu in series [1] (brain/plasma) turned out to be 0.017. This compound had a fraction unbound at 4 h in series [3] (plasma) of 0.03. For the same compound, the Kp in series [4] (brain/plasma) worked out at 5.55.

With `CN(C)CCc1c[nH]c2ccc(C[C@H]3COC(=O)N3)cc12` [ZOLMITRIPTAN], the Kp uu in series [1] (brain) came out at 0.035. In series [2], this compound gave a Fu of 1. The compound also yielded a free fraction (fraction unbound) at 4 h in series [3] (in vivo) of 0.942. Also, the Kp in series [4] (brain) was 0.043.

With `CC[C@H](CO)Nc1nc(NCc2ccccc2)c2ncn(C(C)C)c2n1` [SELICICLIB], in series [1] (brain/plasma), the Kp uu was 0.205. Besides, in series [3] (plasma), the unbound share (fraction unbound) at 4 h stood at 0.048. In addition, the concentration ratio (Kp) in series [4] (brain/plasma) stood at 1.26.

With `O=c1[nH]c2ccccc2n1CCCN1CCC(n2c(=O)[nH]c3cc(Cl)ccc32)CC1` [DOMPERIDONE], in series [2], the Fu was found to be 0.017. Besides, the fraction unbound at 4 h in series [3] (in vivo) is 0.029.

Regarding `CC(C)CN(C[C@@H](O)[C@H](Cc1ccccc1)NC(=O)O[C@H]1CCOC1)S(=O)(=O)c1ccc(N)cc1`, in series [3] (plasma), the fraction unbound at 4 h stood at 0.129.

For `CCN(CC)CCNC(=O)c1c(C)[nH]c(/C=C2\C(=O)Nc3ccc(F)cc32)c1C` [SUNITINIB], the Kp uu in series [1] (brain/plasma) amounted to 0.414. In series [3] (plasma), this compound yielded a fraction unbound at 4 h of 0.007. The concentration ratio (Kp) in series [4] (brain/plasma) is 0.481.

For `Cc1nc(Nc2ncc(C(=O)Nc3c(C)cccc3Cl)s2)cc(N2CCN(CCO)CC2)n1.O` [DASATINIB], the Kp uu in series [1] (brain) worked out at 0.016. Also, in series [2], the Fu is given as 0.013. For the same compound, the free fraction (fraction unbound) at 4 h in series [3] (plasma) turned out to be 0.026. Moreover, the Kp in series [4] (brain) was determined as 0.061.

`Cc1nc2n(c(=O)c1CCN1CCC(c3noc4cc(F)ccc34)CC1)CCCC2O` (configuration not stated) [PALIPERIDONE]: the Kp uu in series [1] (brain/plasma) stood at 0.443. In series [3] (plasma), this compound registered a fraction unbound at 4 h of 0.047. Moreover, in series [4] (brain/plasma), the Kp was 0.867.

For the compound `COc1ccc2c(c1)c(CC(=O)O)c(C)n2C(=O)c1ccc(Cl)cc1` [INDOMETHACIN], the Kp uu in series [1] (brain) came out at 0.074. The Fu in series [2] is 0.048. This compound also had a fraction unbound at 4 h in series [3] (plasma) of 0.008. For the same compound, in series [4] (brain), the partition ratio (Kp) is 0.009.

As to `C[C@@H]1C[C@H]2[C@@H]3CCC4=CC(=O)C=C[C@]4(C)[C@@]3(F)[C@@H](O)C[C@]2(C)[C@@]1(O)C(=O)CO` [DEXAMETHASONE], the fraction unbound at 4 h in series [3] (plasma) amounted to 0.159.

On to `CC[C@H]1OC(=O)[C@H](C)[C@@H](O[C@H]2C[C@@](C)(OC)[C@@H](O)[C@H](C)O2)[C@H](C)[C@@H](O[C@@H]2O[C@H](C)C[C@H](N(C)C)[C@H]2O)[C@](C)(OC)C[C@@H](C)C(=O)[C@H](C)[C@@H](O)[C@]1(C)O` [CLARITHROMYCIN], for which the Kp uu in series [1] (brain) turned out to be 0.014. This compound came in with a Fu in series [2] of 0.113. In addition, the fraction unbound at 4 h in series [3] (in vivo) amounted to 0.377. Moreover, in series [4] (brain), the Kp amounted to 1.96.

The values above are taken from ChEMBL document CHEMBL4823245, “Development of an In Silico Prediction Model for P-glycoprotein Efflux Potential in Brain Capillary Endothelial Cells toward the Prediction of Brain Penetration” (J Med Chem, 2021).
